From patent publication US4251546A, “Process for killing internal helminths using certain 1,1-bis-(2-substituted-3-nitrophenyl)alkane or alkylene derivatives” (ICI Australia Limited, priority 1977, dated 1981)

System: sheep liver fluke (Fasciola hepatica)
Experiment: Fluke egg count in faeces and adult fluke count in liver of infected sheep after a single s/c dose (Table 3)
Assay type: in vivo
Conditions: for POST MORTEM RESULT No. of adult fluke: liver
Description: Compositions suitable for use as experimental injectable solutions were prepared by formulating the compounds as solutions of their salts either in water or in a mixture of water and ethylene glycol or water and polyethylene glycol (PEG200).
Compositions prepared by the method of Example 10 were used as a single dose to test sheep infected with sheep liver fluke (Fasciola hepatica). The number of liver fluke eggs in the faeces was measured at the time of treatment and at selected intervals up to 30 days after treatment. The sheep were killed and the number of adult fluke in the liver counted. The amount and structure of the active ingredient in each composition and the results of treatment of a sheep with that composition are given in the Table 3 below. The compositions were administered by sub-cutaneous injection (s/c).

Structure (SMILES): O=[N+]([O-])c1cc(Cl)cc(Cc2cc(Cl)cc([N+](=O)[O-])c2O)c1O [Compound 1]
- FAECAL EGG COUNT, day 7 (single dose 12.5 mg/kg): 0 Eggs/g faeces
- FAECAL EGG COUNT, day 14 (single dose 12.5 mg/kg): 50 Eggs/g faeces
- FAECAL EGG COUNT, day 30 (single dose 12.5 mg/kg, day 30): 0 Eggs/g faeces
- POST MORTEM RESULT No. of adult fluke (single dose 12.5 mg/kg): 0

Structure (SMILES): O=[N+]([O-])c1cc(Cl)cc(Cc2cc(Br)cc([N+](=O)[O-])c2O)c1O [Compound 3]
- FAECAL EGG COUNT, day 7 (single dose 12.5 mg/kg): 0 Eggs/g faeces
- FAECAL EGG COUNT, day 14 (single dose 12.5 mg/kg): 0 Eggs/g faeces
- POST MORTEM RESULT No. of adult fluke (single dose 12.5 mg/kg): 1

Structure (SMILES): CC(c1cc(Cl)cc([N+](=O)[O-])c1O)c1cc(Cl)cc([N+](=O)[O-])c1O [Compound 7]
- FAECAL EGG COUNT, day 7 (single dose 5.0 mg/kg): 0 Eggs/g faeces
- FAECAL EGG COUNT, day 14 (single dose 5.0 mg/kg): 50 Eggs/g faeces
- FAECAL EGG COUNT, day 7 (single dose 8.0 mg/kg): 0 Eggs/g faeces
- FAECAL EGG COUNT, day 14 (single dose 8.0 mg/kg): 0 Eggs/g faeces
- POST MORTEM RESULT No. of adult fluke (single dose 8.0 mg/kg): 0
- FAECAL EGG COUNT, day 7 (single dose 12.5 mg/kg): 20 Eggs/g faeces
- FAECAL EGG COUNT, day 14 (single dose 12.5 mg/kg): 0 Eggs/g faeces
- POST MORTEM RESULT No. of adult fluke (single dose 12.5 mg/kg): 0
- FAECAL EGG COUNT, day 7 (single dose 20.0 mg/kg): 0 Eggs/g faeces
- FAECAL EGG COUNT, day 13 (single dose 20.0 mg/kg, day 13): 0 Eggs/g faeces
- POST MORTEM RESULT No. of adult fluke (single dose 20.0 mg/kg): 0

Structure (SMILES): CC(c1cc(Cl)cc([N+](=O)[O-])c1O)c1cc(Br)cc([N+](=O)[O-])c1O (centres unmarked) [Compound 8, 1-(5-Bromo-2-hydroxy-3-nitrophenyl)-1-(5-chloro-2-hydroxy-3-nitrophenyl)ethane]
- FAECAL EGG COUNT, day 7 (single dose 4.0 mg/kg): 110 Eggs/g faeces
- FAECAL EGG COUNT, day 14 (single dose 4.0 mg/kg): 80 Eggs/g faeces
- FAECAL EGG COUNT, day 7 (single dose 6.0 mg/kg): 20 Eggs/g faeces
- FAECAL EGG COUNT, day 14 (single dose 6.0 mg/kg): 10 Eggs/g faeces
- POST MORTEM RESULT No. of adult fluke (single dose 6.0 mg/kg): 0
- FAECAL EGG COUNT, day 7 (single dose 8.0 mg/kg): 0 Eggs/g faeces
- FAECAL EGG COUNT, day 14 (single dose 8.0 mg/kg): 0 Eggs/g faeces
- POST MORTEM RESULT No. of adult fluke (single dose 8.0 mg/kg): 0
- FAECAL EGG COUNT, day 7 (single dose 12.5 mg/kg): 0 Eggs/g faeces
- FAECAL EGG COUNT, day 14 (single dose 12.5 mg/kg): 0 Eggs/g faeces
- POST MORTEM RESULT No. of adult fluke (single dose 12.5 mg/kg): 0

Structure (SMILES): CC(c1cc(Br)cc([N+](=O)[O-])c1O)c1cc(Br)cc([N+](=O)[O-])c1O [Compound 9]
- FAECAL EGG COUNT, day 7 (single dose 12.5 mg/kg): 0 Eggs/g faeces
- FAECAL EGG COUNT, day 14 (single dose 12.5 mg/kg): 0 Eggs/g faeces
- POST MORTEM RESULT No. of adult fluke (single dose 12.5 mg/kg): 0

Structure (SMILES): CC(c1cc(Br)cc([N+](=O)[O-])c1O)c1cc(I)cc([N+](=O)[O-])c1O (centres unmarked) [Compound 10]
- FAECAL EGG COUNT, day 7 (single dose 12.5 mg/kg): 10 Eggs/g faeces
- FAECAL EGG COUNT, day 14 (single dose 12.5 mg/kg): 90 Eggs/g faeces

Structure (SMILES): O=[N+]([O-])c1cc(Cl)cc(C(c2cc(Cl)cc([N+](=O)[O-])c2O)C(Cl)(Cl)Cl)c1O [Compound 11]
- FAECAL EGG COUNT, day 7 (single dose 5.0 mg/kg): 50 Eggs/g faeces
- FAECAL EGG COUNT, day 14 (single dose 5.0 mg/kg): 0 Eggs/g faeces
- POST MORTEM RESULT No. of adult fluke (single dose 5.0 mg/kg): 0

Structure (SMILES): O=[N+]([O-])c1cc(F)cc(C(=C(Cl)Cl)c2cc(F)cc([N+](=O)[O-])c2O)c1O [Compound 16]
- FAECAL EGG COUNT, day 7 (single dose 12.5 mg/kg): 10 Eggs/g faeces
- FAECAL EGG COUNT, day 14 (single dose 12.5 mg/kg): 10 Eggs/g faeces
- POST MORTEM RESULT No. of adult fluke (single dose 12.5 mg/kg): 0

Structure (SMILES): CC(=O)Oc1c(C(=C(Cl)Cl)c2cc(Cl)cc([N+](=O)[O-])c2OC(C)=O)cc(Cl)cc1[N+](=O)[O-] [Compound 17]
- FAECAL EGG COUNT, day 7 (single dose 12.0 mg/kg): 110 Eggs/g faeces
- FAECAL EGG COUNT, day 14 (single dose 12.0 mg/kg): 0 Eggs/g faeces
- POST MORTEM RESULT No. of adult fluke (single dose 12.0 mg/kg): 0

Structure (SMILES): COC(=O)Oc1c(C(=C(Cl)Cl)c2cc(Cl)cc([N+](=O)[O-])c2OC(=O)OC)cc(Cl)cc1[N+](=O)[O-] [Compound 18]
- FAECAL EGG COUNT, day 7 (single dose 12.0 mg/kg): 60 Eggs/g faeces
- FAECAL EGG COUNT, day 14 (single dose 12.0 mg/kg): 0 Eggs/g faeces
- POST MORTEM RESULT No. of adult fluke (single dose 12.0 mg/kg): 1

Structure (SMILES): CC(C)(c1cc(F)cc([N+](=O)[O-])c1O)c1cc(F)cc([N+](=O)[O-])c1O [Compound 19, 2,2'-Isopropylidene bis(4-fluoro-6-nitrophenol)]
- FAECAL EGG COUNT, day 7 (single dose 12.5 mg/kg): 210 Eggs/g faeces
- FAECAL EGG COUNT, day 14 (single dose 12.5 mg/kg): 180 Eggs/g faeces

Structure (SMILES): CC(C)(c1cc(F)cc([N+](=O)[O-])c1O)c1cc(Cl)cc([N+](=O)[O-])c1O [Compound 20, 2-(5-chloro-2-hydroxy-3-nitrophenyl)-2-(5-fluoro-2-hydroxy-3-nitrophenyl)propane]
- FAECAL EGG COUNT, day 7 (single dose 12.5 mg/kg): 400 Eggs/g faeces
- FAECAL EGG COUNT, day 14 (single dose 12.5 mg/kg): 140 Eggs/g faeces

Structure (SMILES): CC(C)COC(c1cc(Cl)cc([N+](=O)[O-])c1O)c1cc(Cl)cc([N+](=O)[O-])c1O [Compound 24, bis(5-chloro-2-hydroxy-3-nitrophenyl)methyl isobutyl ether]
- FAECAL EGG COUNT, day 7 (single dose 6.0 mg/kg): 20 Eggs/g faeces
- FAECAL EGG COUNT, day 14 (single dose 6.0 mg/kg): 10 Eggs/g faeces
- POST MORTEM RESULT No. of adult fluke (single dose 6.0 mg/kg): 0

Structure (SMILES): CCOC(c1cc(Cl)cc([N+](=O)[O-])c1O)c1cc(Cl)cc([N+](=O)[O-])c1O [Compound 26]
- FAECAL EGG COUNT, day 7 (single dose 6.0 mg/kg): 130 Eggs/g faeces
- FAECAL EGG COUNT, day 14 (single dose 6.0 mg/kg): 10 Eggs/g faeces
- POST MORTEM RESULT No. of adult fluke (single dose 6.0 mg/kg): 0
